According to patent EP3033433B1, “DETECTION OF ORGANOPHOSPHATE RESISTANCE IN CRUSTACEANS” (priority 2013, dated 2015):
In brackets after ≈: the same amount, converted by molar mass. Where two headings read alike, the source gives them in different places.

Assays:
sea lice (L. salmonis) [1] = assay: Bioassay of sea lice strains' sensitivity to azamethiphos (exposure to increasing concentrations); format: in vivo; conditions: Lepeophtheirus salmonis
From the text: (§1) The parasites had to be tested by a bioassay method, i.e. exposure to increasing concentrations of the agent to see how much they tolerated. As no bioassay method for salmon lice sensitivity towards azamethiphos was published, an unpublished protocol had to be used, with necessary adaptations. To be on the safe side, small scale laboratory treatments with fish infected with parasites containing only the wild-type enzyme versus fish infected with parasites containing the mutation were also successfully performed and confirmed the bioassay results.
The sensitivity of the strains analyzed was tested by traditional bioassays and small scale treatments (Helgesen et al., 2013). The history of the strains were LSAlta: Sampled 2010, inbred for approx. 10 generations. Fully sensitive to all agents LSBjugn: Sampled 2008, inbred for approx. 15 generations. Moderately resistant to azamethiphos, pyrethroids and emamectin benzoate. LSGulen: Sampled in 2004, inbred for approx. 25 generations. Fully sensitive to all agents LSHitra: Sampled in 2011. Resistant towards azamethiphos (not tested for other agents). Inbred for approx. 7 generations. LSHitra-s: Subset of LSHitra where fish with parasites were treated with 100 ppb azamethiphos (Salmosan™) for 30 minutes in a 200 liter fibre-glass tank. The subset is the surviving parasites after treatment. LSVeso: Sampled in 2012 in the field (Otterøya) shortly after a full-scale treatment with azamethiphos in the farm. Only surviving parasites were sampled.

sea lice (L. salmonis) [2] = assay: Small scale laboratory treatment of fish infected with salmon lice; format: in vivo, Lepeophtheirus salmonis; conditions: 100 ppb azamethiphos
From the text: as §1
The strains were: LSAlta: Sampled 2010, inbred for approx. 10 generations. No history of insensivity towards azamethiphos. LSBjugn: Sampled 2008, inbred for approx. 15 generations. History of insensitivity towards azamethiphos. LSGulen: Sampled in 2004, inbred for approx. 25 generations. No history of insensivity towards azamethiphos. LSHitra: Sampled in 2011, inbred for approx. 7 generations. History of insensitivity towards azamethiphos. LSHitra-s: Subset of LSHitra where fish with parasites were treated with 100 ppb azamethiphos (Salmosan™) for 30 minutes in a 200 liter fibre-glass tank. The subset is the surviving parasites after treatment. […]
The sensitivity of the strains analyzed was tested by traditional bioassays and small scale treatments (Helgesen et al., 2013). […]

[3] = tested on: acetyl cholin esterase from sea lice (L. salmonis); conditions: within 2 minutes, 0.01 µM azamethiphos, samples collected 2000 - 2002, cited from earlier work
[4] = molecular target: Phe371Tyr, Drosophila amino acid sequence (Drosophila melanogaster, UniProt P07140, F409Y); conditions: Phe371Tyr mutant versus wild type enzyme; cited from earlier work

## COP(=O)(OC)SCn1c(=O)oc2cc(Cl)cnc21 [azamethiphos, S-[(6-Chloro-2-oxo[1,3]oxazolo[4,5-b]pyridin-3(2H)-yl)methyl]O,O-dimethyl phosphorothioate]
Sea lice (L. salmonis) [1]; strain LSAlta
  EC50: 2.1 ng/mL
Sea lice (L. salmonis) [1]; strain LSBjugn, read-out: EC50
  EC50: 4.5 ng/mL (≈ 0.0139 µM)
Sea lice (L. salmonis) [1]; strain LSGulen, read-out: EC50
  EC50: 1.8 ng/mL (≈ 0.00554 µM)
Sea lice (L. salmonis) [1]; strain LSHitra, read-out: EC50
  EC50: 60 ng/mL (≈ 0.185 µM)
Sea lice (L. salmonis) [1]; strain LSVeso, tested at only one concentration, read-out: EC50
  EC50: > 100 ng/mL
Sea lice (L. salmonis) [2]; strain LSAlta (fully sensitive)
  Treatment efficacy (%) mean: 100%
Sea lice (L. salmonis) [2]; strain LSHitra (resistant)
  Treatment efficacy (%) mean: 50%
[3]; samples with bi-exponential decline rate (most likely heterozygot resistant), activity remained at this level
  acetyl cholin esterase inhibited: approx. 80%
[3]; samples with mono-exponential decline rate (most likely wild type)
  enzyme activity inhibited: inhibited completely

## CCOP(=O)(OCC)Oc1ccc([N+](=O)[O-])cc1 [paraoxon]
[4]
  decrease the sensitivity of the enzyme: 200 fold
